# *1 amine or outer side, *2 acyl side, *3 side chain or, on linkers, in order; H or OH if unused. Where a SMILES comes first, the peptide text is derived from it. Side-chain parts run from the residue outwards. [ ]: non-standard residue; d: D form. The star is where a group is joined. Isobutyryl(2-(3-CN-5-F-Ph)) = CC(C)(C(=O)*)c1cc(F)cc(C#N)c1; C20 diacid = O=C(O)CCCCCCCCCCCCCCCCCCC(=O)*; γGlu = O=C(O)[C@H](CCC(=O)[*:2])N[*:1]; αMeF = C[C@](N)(Cc1ccccc1)C(=O)O; X26 = O=C(C1(c2ccccc2)CCCC1)*; X23 = CC(C)(C(=O)*)c1ccncc1; X64 = CC(C)(C(=O)*)c1ccccn1; X1 = CC(C)(C(=O)*)c1cccnc1; AEEA = NCCOCCOCC(=O)O; Aib = CC(C)(N)C(=O)O; βAla = NCCC(=O)O
# Tests used:
# Type in all cases: cell-based
# GLP-1 receptor [1] = biological target: T1, GLP-1 receptor (Homo sapiens, UniProt P43220); test: HitHunter cAMP assay, GLP-1 receptor; conditions: for EC50: CHO cells stably expressing human GLP-1 receptor, cAMP accumulation, 30 min, read-out: EC50 GLP-1R; for Emax: CHO cells, cAMP, normalized to maximum signal from GLP-1 (high) and DMSO (low), read-out: Emax GLP-1R
# Method: CAMP accumulation was measured in Chinese hamster ovary (CHO) cells stably expressing the human GLP-1 receptor or GIP receptor using the HitHunter CAMP Assay for Small Molecules Kit (Eurofins). Briefly, cells were grown in Ham's F12 Nutrient Mix with 10% FBS and lifted with Cell dissociation buffer, Enzyme free, PBS based (ThermoFisher). Cells were pelleted and resuspended in Hank's buffered saline solution with 10 mM Hepes and 625 μM 3-isobutyl-1-methylxanthine. The antibody reagent was then added to cells at a 1:2 ratio and 5 μL of mixture was seeded in 384-well small volume white assay plates, at 10,000 cells/well. Cells were then treated with 50 nl compound in DMSO using an ECHO 550 acoustic dispenser (Labcyte) in a 20-point dose response format in triplicate for 30 min. Cells were the lysed and detection reagents added according to the manufacturer's protocol. After overnight incubation, luminescence was measured using a Perkin Elmer Envision plate reader. Raw data was normalized to the maximum signal from GLP-1 or GIP (high) and DMSO (low). Dose response curves were analyzed using GraphPad Prism 9.0.
# GIP receptor [2] = biological target: T2, GIP receptor (Homo sapiens, UniProt P48546); test: HitHunter cAMP assay, GIP receptor; conditions: for EC50: CHO cells stably expressing GIP receptor, cAMP accumulation, 30 min, read-out: EC50 GIP-1R; for Emax: CHO cells, cAMP, normalized to maximum signal from GIP (high) and DMSO (low), read-out: Emax GIP-1R
# T2 sequence (P48546 22-466): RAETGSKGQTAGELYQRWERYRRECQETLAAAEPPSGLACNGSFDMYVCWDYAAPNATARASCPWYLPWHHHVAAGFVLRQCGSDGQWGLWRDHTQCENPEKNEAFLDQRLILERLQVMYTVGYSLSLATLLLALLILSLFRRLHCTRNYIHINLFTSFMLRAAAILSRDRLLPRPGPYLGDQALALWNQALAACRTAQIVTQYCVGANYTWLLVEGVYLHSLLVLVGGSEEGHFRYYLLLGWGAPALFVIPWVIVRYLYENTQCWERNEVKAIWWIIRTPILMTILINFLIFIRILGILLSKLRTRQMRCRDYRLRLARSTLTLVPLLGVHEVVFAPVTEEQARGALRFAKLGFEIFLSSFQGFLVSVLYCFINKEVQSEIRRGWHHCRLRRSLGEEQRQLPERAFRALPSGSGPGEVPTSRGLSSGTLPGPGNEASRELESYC
# GIP receptor [3] = biological target: T2, GIP receptor; test: PathHunter β-arrestin assay, GIP receptor; parameters: host or cells: PathHunter CHO-K1 GIPR β-Arrestin Cell Line; conditions: β-arrestin-2 recruitment, PathHunter CHO-K1 GIPR β-Arrestin Cell Line, 90 min at 37° C.; normalized to GIP; read-out: GIPR β Arrestin EC50
# GLP-1 receptor [4] = biological target: T1, GLP-1 receptor; test: PathHunter β-arrestin assay, GLP-1 receptor; parameters: host or cells: PathHunter CHO-K1 GLP1R β-Arrestin Cell Line; conditions: β-arrestin-2 recruitment, PathHunter CHO-K1 GLP1R β-Arrestin Cell Line, 90 min at 37° C.; normalized to GLP-1; read-out: GLP-1R β Arrestin EC50
# T1 sequence (P43220 24-463): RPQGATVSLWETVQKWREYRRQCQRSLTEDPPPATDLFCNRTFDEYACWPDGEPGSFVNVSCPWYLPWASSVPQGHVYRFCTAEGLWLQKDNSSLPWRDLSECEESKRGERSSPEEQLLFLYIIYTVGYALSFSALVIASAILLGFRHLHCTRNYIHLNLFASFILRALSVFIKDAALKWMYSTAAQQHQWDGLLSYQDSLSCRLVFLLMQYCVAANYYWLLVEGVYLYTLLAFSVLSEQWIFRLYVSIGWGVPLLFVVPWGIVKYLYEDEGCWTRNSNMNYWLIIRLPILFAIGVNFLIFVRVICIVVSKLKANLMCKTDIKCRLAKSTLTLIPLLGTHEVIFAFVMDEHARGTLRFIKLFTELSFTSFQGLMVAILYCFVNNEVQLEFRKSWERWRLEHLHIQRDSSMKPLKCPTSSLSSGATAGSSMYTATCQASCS
Compound,EC50 (GLP-1 receptor [1]),Emax (GLP-1 receptor [1]),EC50 (GIP receptor [2]),Emax (GIP receptor [2]),EC50 (GIP receptor [3]),EC50 (GLP-1 receptor [4])
CC[C@H](C)[C@H](NC(=O)[C@H](CC(C)C)NC(=O)[C@H](Cc1c[nH]c2ccccc12)NC(=O)[C@H](CCC(N)=O)NC(=O)[C@@H](NC(=O)[C@H](Cc1ccccc1)NC(=O)[C@H](C)NC(=O)[C@H](CCCCNC(=O)COCCOCCNC(=O)COCCOCCNC(=O)CC[C@H](NC(=O)CCCCCCCCCCCCCCCCCCC(=O)O)C(=O)O)NC(=O)[C@H](CCC(N)=O)NC(=O)[C@H](C)NC(=O)[C@@H](NC(=O)[C@H](CCCCN)NC(=O)[C@H](CC(=O)O)NC(=O)[C@H](CC(C)C)NC(=O)C(C)(C)NC(=O)[C@@H](NC(=O)[C@H](CO)NC(=O)[C@H](Cc1ccc(O)cc1)NC(=O)[C@H](CC(=O)O)NC(=O)[C@H](CO)NC(=O)[C@@H](NC(=O)[C@](C)(Cc1ccccc1)NC(=O)[C@@H](NC(=O)CNC(=O)[C@H](CCC(=O)O)NC(=O)CCNC(=O)C(C)(C)c1cc(F)cc(C#N)c1)[C@@H](C)O)[C@@H](C)O)[C@@H](C)CC)[C@@H](C)CC)C(C)C)C(=O)N[C@@H](C)C(=O)NCC(=O)NCC(=O)N1CCC[C@H]1C(=O)N[C@@H](CO)C(=O)N[C@@H](CO)C(=O)NCC(=O)N[C@@H](C)C(=O)N1CCC[C@H]1C(=O)N1CCC[C@H]1C(=O)N1CCC[C@H]1C(=O)N[C@@H](CO)C(N)=O [Compound 235] ({Isobutyryl(2-(3-CN-5-F-Ph))-βAla}-EGT[αMeF]TSDYSI[Aib]LDKIAQK([AEEA-AEEA-γGlu-C20 diacid])AFVQWLIAGGPSSGAPPPS-NH2),0.1 to 1 nM,122%,0.1 to 1 nM,108%,< 1000 nM,> 1000 nM
CC[C@H](C)[C@H](NC(=O)[C@H](CC(C)C)NC(=O)[C@H](Cc1c[nH]c2ccccc12)NC(=O)[C@H](CCC(N)=O)NC(=O)[C@@H](NC(=O)[C@H](Cc1ccccc1)NC(=O)[C@H](C)NC(=O)[C@H](CCCCNC(=O)COCCOCCNC(=O)COCCOCCNC(=O)CC[C@H](NC(=O)CCCCCCCCCCCCCCCCCCC(=O)O)C(=O)O)NC(=O)[C@H](CCC(N)=O)NC(=O)[C@H](C)NC(=O)[C@@H](NC(=O)[C@H](CCCCN)NC(=O)[C@H](CC(=O)O)NC(=O)[C@H](CC(C)C)NC(=O)C(C)(C)NC(=O)[C@@H](NC(=O)[C@H](CO)NC(=O)[C@H](Cc1ccc(O)cc1)NC(=O)[C@H](CC(=O)O)NC(=O)[C@H](CO)NC(=O)[C@@H](NC(=O)[C@H](Cc1ccccc1)NC(=O)[C@@H](NC(=O)CNC(=O)[C@H](CCC(=O)O)NC(=O)CCNC(=O)C1(c2ccccc2)CCCC1)[C@@H](C)O)[C@@H](C)O)[C@@H](C)CC)[C@@H](C)CC)C(C)C)C(=O)N[C@@H](C)C(=O)NCC(=O)NCC(=O)N1CCC[C@H]1C(=O)N[C@@H](CO)C(=O)N[C@@H](CO)C(=O)NCC(=O)N[C@@H](C)C(=O)N1CCC[C@H]1C(=O)N1CCC[C@H]1C(=O)N1CCC[C@H]1C(=O)N[C@@H](CO)C(N)=O [Compound 236] ({X26-βAla}-EGTFTSDYSI[Aib]LDKIAQK([AEEA-AEEA-γGlu-C20 diacid])AFVQWLIAGGPSSGAPPPS-NH2),0.1 to 1 nM,127%,1 to 10 nM,114%,> 1000 nM,> 1000 nM
CC[C@H](C)[C@H](NC(=O)[C@H](CC(C)C)NC(=O)[C@H](Cc1c[nH]c2ccccc12)NC(=O)[C@H](CCC(N)=O)NC(=O)[C@@H](NC(=O)[C@H](Cc1ccccc1)NC(=O)[C@H](C)NC(=O)[C@H](CCCCNC(=O)COCCOCCNC(=O)COCCOCCNC(=O)CC[C@H](NC(=O)CCCCCCCCCCCCCCCCCCC(=O)O)C(=O)O)NC(=O)[C@H](CCC(N)=O)NC(=O)[C@H](C)NC(=O)[C@@H](NC(=O)[C@H](CCCCN)NC(=O)[C@H](CC(=O)O)NC(=O)[C@H](CC(C)C)NC(=O)C(C)(C)NC(=O)[C@@H](NC(=O)[C@H](CO)NC(=O)[C@H](Cc1ccc(O)cc1)NC(=O)[C@H](CC(=O)O)NC(=O)[C@H](CO)NC(=O)[C@@H](NC(=O)[C@H](Cc1ccccc1)NC(=O)[C@@H](NC(=O)CNC(=O)[C@H](CCC(=O)O)NC(=O)CCNC(=O)C(C)(C)c1ccccn1)[C@@H](C)O)[C@@H](C)O)[C@@H](C)CC)[C@@H](C)CC)C(C)C)C(=O)N[C@@H](C)C(=O)NCC(=O)NCC(=O)N1CCC[C@H]1C(=O)N[C@@H](CO)C(=O)N[C@@H](CO)C(=O)NCC(=O)N[C@@H](C)C(=O)N1CCC[C@H]1C(=O)N1CCC[C@H]1C(=O)N1CCC[C@H]1C(=O)N[C@@H](CO)C(N)=O [Compound 237] ({X64-βAla}-EGTFTSDYSI[Aib]LDKIAQK([AEEA-AEEA-γGlu-C20 diacid])AFVQWLIAGGPSSGAPPPS-NH2),< 0.1 nM,93%,1 to 10 nM,91%,< 1000 nM,> 1000 nM
CC[C@H](C)[C@H](NC(=O)[C@H](CC(C)C)NC(=O)[C@H](Cc1c[nH]c2ccccc12)NC(=O)[C@H](CCC(N)=O)NC(=O)[C@@H](NC(=O)[C@H](Cc1ccccc1)NC(=O)[C@H](C)NC(=O)[C@H](CCCCNC(=O)COCCOCCNC(=O)COCCOCCNC(=O)CC[C@H](NC(=O)CCCCCCCCCCCCCCCCCCC(=O)O)C(=O)O)NC(=O)[C@H](CCC(N)=O)NC(=O)[C@H](C)NC(=O)[C@@H](NC(=O)[C@H](CCCCN)NC(=O)[C@H](CC(=O)O)NC(=O)[C@H](CC(C)C)NC(=O)C(C)(C)NC(=O)[C@@H](NC(=O)[C@H](CO)NC(=O)[C@H](Cc1ccc(O)cc1)NC(=O)[C@H](CC(=O)O)NC(=O)[C@H](CO)NC(=O)[C@@H](NC(=O)[C@H](Cc1ccccc1)NC(=O)[C@@H](NC(=O)CNC(=O)[C@H](CCC(=O)O)NC(=O)CCNC(=O)C(C)(C)c1ccncc1)[C@@H](C)O)[C@@H](C)O)[C@@H](C)CC)[C@@H](C)CC)C(C)C)C(=O)N[C@@H](C)C(=O)NCC(=O)NCC(=O)N1CCC[C@H]1C(=O)N[C@@H](CO)C(=O)N[C@@H](CO)C(=O)NCC(=O)N[C@@H](C)C(=O)N1CCC[C@H]1C(=O)N1CCC[C@H]1C(=O)N1CCC[C@H]1C(=O)N[C@@H](CO)C(N)=O [Compound 238] ({X23-βAla}-EGTFTSDYSI[Aib]LDKIAQK([AEEA-AEEA-γGlu-C20 diacid])AFVQWLIAGGPSSGAPPPS-NH2),0.1 to 1 nM,91%,10 to 100 nM,100%,> 1000 nM,> 1000 nM
CC[C@H](C)[C@H](NC(=O)[C@H](CC(C)C)NC(=O)[C@H](Cc1c[nH]c2ccccc12)NC(=O)[C@H](CCC(N)=O)NC(=O)[C@@H](NC(=O)[C@H](Cc1ccccc1)NC(=O)[C@H](C)NC(=O)[C@H](CCCCNC(=O)COCCOCCNC(=O)COCCOCCNC(=O)CC[C@H](NC(=O)CCCCCCCCCCCCCCCCCCC(=O)O)C(=O)O)NC(=O)[C@H](CCC(N)=O)NC(=O)[C@H](C)NC(=O)[C@@H](NC(=O)[C@H](CCCCN)NC(=O)[C@H](CC(=O)O)NC(=O)[C@H](CC(C)C)NC(=O)C(C)(C)NC(=O)[C@@H](NC(=O)[C@H](CO)NC(=O)[C@H](Cc1ccc(O)cc1)NC(=O)[C@H](CC(=O)O)NC(=O)[C@H](CO)NC(=O)[C@@H](NC(=O)[C@H](Cc1ccccc1)NC(=O)[C@@H](NC(=O)CNC(=O)[C@H](CCC(=O)O)NC(=O)CCNC(=O)C(C)(C)c1cccnc1)[C@@H](C)O)[C@@H](C)O)[C@@H](C)CC)[C@@H](C)CC)C(C)C)C(=O)N[C@@H](C)C(=O)NCC(=O)NCC(=O)N1CCC[C@H]1C(=O)N[C@@H](CO)C(=O)N[C@@H](CO)C(=O)NCC(=O)N[C@@H](C)C(=O)N1CCC[C@H]1C(=O)N1CCC[C@H]1C(=O)N1CCC[C@H]1C(=O)N[C@@H](CO)C(N)=O [Compound 239] ({X1-βAla}-EGTFTSDYSI[Aib]LDKIAQK([AEEA-AEEA-γGlu-C20 diacid])AFVQWLIAGGPSSGAPPPS-NH2),< 0.1 nM,91%,1 to 10 nM,99%,> 1000 nM,< 1000 nM
